Experimental data from patent publication US20130143969A1 (THE OHIO STATE UNIVERSITY, priority 2010, published 2013).

Columns and labels:
[1] = test system: DNMT1; experiment: Western blot of DNMT1 protein in leukemia cells; type: cell-based
Protocol: (§1) Cell Cycle and Apoptosis Analysis: MV4-11, ML-1, HL-60 and K562 leukemia cell lines were cultured in RPMI medium (VWR International, Inc., West Chester, Pa.) supplemented with 10% fetal bovine serum (Invitrogen, Carlsbad, Calif.) and 1% (v/v) penicillin/streptomycin (Invitrogen Life Technologies; Carlsbad, Calif.) antibiotic solution at 37° C. in an incubator under 5% CO2 atmosphere. […] The cell cycle and apoptosis of MV4-11 cells was analyzed on a BD FACS Calibur (Beckman Coulter, Fullerton, Calif.) according to the standard protocol provided by the manufacturer.
(§2) Cells or tumor tissues were homogenized and lysed in ice-cold lysis buffer (20 mM, pH 7.0 HEPES, 150 mM NaCl, 0.1% NP40 supplemented with 1 mM β-glycerophosphate, 1 mM Na3VO4, 1 mM NaF, 1 mM benzamide and 1 mM phenylmethylsulfonyl fluoride) with protease inhibitors (Protease Inhibitor cocktail Set III, Calbiochem-Novabiochem Corporation, La Jolla, Calif.), and incubated on ice for 20 mM. […] The immunoblotted proteins were detected by ECL reagent (GE Healthcare Bio-Sciences Corp., Piscataway, N.J.).

[2] = test system: DNMT3a; experiment: DNMT3a mRNA in MV4-11 engrafted tumor tissues; type: in vivo; details: MV4-11 engrafted mice, curcumin i.p. 100 mg/kg
Protocol: (§3) Quantitative RT-PCR was used to quantify the mRNA levels of DNMT1, DNMT3a, DNMT3b, p15INK4B and p21. Total RNA was extracted with Trizol reagent (Invitrogen, Carlsbad, Calif.) and reverse transcribed by reverse transcriptase (Invitrogen). Quantitative real-time PCR reactions were performed in triplicate using Taqman gene expression assay (Applied Biosystems) with an ABI prism 7700 detector (Applied Biosystems). The target gene values were normalized to the values of internal control GAPDH or 18 S, and expressed as relative percent change (100×2^(˜ΔΔCt)) over non-treated samples.
Female athymic nu/nu mice (4-6 weeks old, 18-22 g) were obtained from Charles River Laboratory (Wilmington, Mass.) and acclimated for 1 week in a pathogen-free enclosure before start of study. Animals were given sterile rodent chow and water ad libitum and were housed in sterile filter-top cages with 12 hour light/dark cycles. All experiments were conducted in accordance with the guidelines of the Association for Assessment and Accreditation of Laboratory Animal Care International. […] Tumor volume was calculated by using the equation V=2×A×B^2/3, where A is the longer (horizontal as width) diameter (mm) and B is the shorter (perpendicular as depth) diameter (mm) and expressed in cubic millimeter. […]

[3] = test system: MV4-11 cells; experiment: Cell viability / anti-proliferation; type: cell-based
[4] = test system: MV4-11 leukemia cell-engrafted animal model; experiment: Xenograft animal model, anti-tumor growth activity; type: in vivo, athymic nu/nu mice
Protocol: Female athymic nu/nu mice (4-6 weeks old, 18-22 g) were obtained from Charles River Laboratory (Wilmington, Mass.) and acclimated for 1 week in a pathogen-free enclosure before start of study. Animals were given sterile rodent chow and water ad libitum and were housed in sterile filter-top cages with 12 hour light/dark cycles. All experiments were conducted in accordance with the guidelines of the Association for Assessment and Accreditation of Laboratory Animal Care International. MV4-11 cells (5×10^6 cells per mouse) were suspended with 50% Matrigel (Becton Dickinson) and subcutaneously implanted into both right and left flanks of the athymic nu/nu mice. When tumors were grown between 100 to 200 mm^3, treatments were initiated. Mice were randomly assigned into two cohorts for the anti-tumor growth activity studies, with 6 mice per group. […] Tumor volume was calculated by using the equation V=2×A×B^2/3, where A is the longer (horizontal as width) diameter (mm) and B is the shorter (perpendicular as depth) diameter (mm) and expressed in cubic millimeter. After 4 weeks, mice were euthanized and tumor tissues were excised, snapfrozen in liquid nitrogen, weighed and stored in a −80° C. freezer until analysis.

[5] = test system: DNMT3b; experiment: Western blot of DNMT3b protein in MV4-11 cells; type: cell-based
Protocol: as §1, §2

[6] = Solubility of curcumin in different PEGs and temperatures; type: physicochemical
Protocol: The pharmaceutical compositions may be prepared by dissolving solid curcumin in an excipient. […] In one embodiment, the mixture is stirred at an elevated temperature until a homogenous solution is obtained. For example, the mixture may be heated to a temperature within the range from about 30° C. to about 150° C.; from about 50° C. to about 120° C.; from about 60° C. to about 100° C. […]

[7] = In-vitro stability of curcumin in mouse plasma at 37° C; type: in vitro ADME
Excerpt: (§4) Therefore, all mouse blood and plasma samples have to be processed on ice to avoid potential degradation for its pharmacokinetic studies.

[8] = test system: MV4-11 cells; experiment: Apoptosis analysis; type: cell-based; details: 10 μM curcumin
Protocol: as §1, with “atmosphere. For the ex-vivo studies, mononuclear cells obtained from bone marrow (BM) of patient with AML were prepared by Ficoll-Hypaque (Nygaard) gradient centrifugation and cultured with serum-free expansion medium (SFEM) (StemCell technologies, Vancouver, BC) supplemented with GM-CSF (50 ng/ml), IL-3 (20 ng/ml), IL-6 (20 ng/ml) and SCF ([…]).” for “atmosphere.”

[9] = test system: DNMT3a; experiment: Quantitative RT-PCR of DNMT3a mRNA in MV4-11 cells; type: cell-based; details: 10 μM
Protocol: as §1, with “atmosphere. For the ex-vivo studies, mononuclear cells obtained from bone marrow (BM) of patient with AML were prepared by Ficoll-Hypaque (Nygaard) gradient centrifugation and cultured with serum-free expansion medium (SFEM) (StemCell technologies, Vancouver, BC) supplemented with GM-CSF (50 ng/ml), IL-3 (20 ng/ml), IL-6 (20 ng/ml) and SCF ([…]).” for “atmosphere.”
as §3, with “Total RNA was extracted with Trizol reagent (Invitrogen, Carlsbad, Calif.) and reverse transcribed by reverse transcriptase (Invitrogen).” left out

[10] = Stability of curcumin in reconstituted solution in auto-sampler at 4° C; type: physicochemical; details: auto-sampler 4° C, up to 8 hours
Excerpt: as §4

[11] = day 29 after the treatment, i.p. 100 mg/kg

COc1cc(/C=C/C(=O)CC(=O)/C=C/c2ccc(O)c(OC)c2)ccc1O [curcumin]
DNMT1 protein level decrease ([1]; ML-1 cells): 50%
DNMT1 protein level ([1]; MV4-11 cells, 10 μM): completely depleted
mRNA level of DNMT3a in engrafted tissues [2]: significantly decreases
IC50 ([3]; Homo sapiens, MV4-11): 10 to 15 µM
cell viability decreased to ([3]; MV4-11 cells (FIG. 13B)): 60-70%
tumor size decrease ([4]; MV4-11 engrafted nude mice (summary)): about 65%
reduction of tumor size [4, 11]: 3854 mm^3
reduction of tumor weight [4, 11]: 65%
body weight ([4]; i.p. 100 mg/kg five days a week, 4 weeks): No significant weight loss
decrease of tumor growth rate compared with control ([4]; i.p. 100 mg/kg, linear mixed effect model): 142.5 mm^3 per day
life span of MV4-11 engrafted nude mice ([4]; pilot study): 6 weeks
average tumor weight ([4]; treatment group): 3.6 g
DNMT3b protein level reduction [5]: 50%
amount of curcumin that can dissolve ([6]; in 1 mL PEG 400 at 100° C): about 200 mg
Final Conc. 100° C. ([6]; solubility in PEG 200, 100° C): 193.1 mg/mL
Final Conc. 100° C. ([6]; solubility in PEG 300, 100° C): 252.3 mg/mL
Final Conc. 60° C. ([6]; solubility in PEG 400, 60° C): 131.4 mg/mL
Final Conc. 100° C. ([6]; solubility in PEG 400, 100° C): 195 mg/mL
Final Conc. @ RT ([6]; solubility in PEG 400, RT): 42.7 mg/mL
Final Conc. 100° C. ([6]; solubility in PEG 500, 100° C): 218.9 mg/mL
Final Conc. 60° C. ([6]; solubility in PEG 600, 60° C): 136.0 mg/mL
Final Conc. 100° C. ([6]; solubility in PEG 600, 100° C): 241.8 mg/mL
Final Conc. @ RT ([6]; solubility in PEG 600, RT): 42.0 mg/mL
half-life [7]: 23.6 min
curcumin level (below detection limit) ([7]; by 4 hour): < 1 ng/mL
curcumin decomposed ([7]; in 2 hours): more than 97%
portion of apoptotic cells [8]: ~30%
DNMT3a mRNA level, % of the control ([9]; 48 h): 50%
DNMT3a mRNA level, % of the control ([9]; 72 h): 20%
% of original concentrations remaining [10]: > 85%
